Experimental data published in patent publication US11180462B2, “Microbiocidal oxadiazole derivatives” (SYNGENTA PARTICIPATIONS AG, priority 2015, dated 2021).

Columns and labels:
[1] = tested on: Puccinia recondita f. Sp. Tritici; experiment: Fungicidal activity against Puccinia recondita f. sp. tritici / wheat / leaf disc preventative (brown rust); format: in vivo; conditions: foliar, 200 ppm in the applied formulation, wheat leaf segments, preventative, compared to untreated control leaf disks, read-out: disease control
How it was run: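 Compound application precedes infection: segments of wheat cv. Kanzler, sprayed at 200 ppm, are inoculated with a spore suspension after 1 day. Incubation is at 19° C. with 75% relative humidity and 12 h light/12 h darkness, and control versus untreated leaves is rated 7 to 9 days post-application.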

[2] = tested on: Glomerella lagenarium (Colletotrichum lagenarium); experiment: Fungicidal activity against Glomerella lagenarium (Colletotrichum lagenarium) liquid culture / cucumber / preventative (anthracnose); format: cell-based; conditions: Colletotrichum orbiculare; 20 ppm in the applied formulation; liquid culture (PDB), growth inhibition measured photometrically after 3 to 4 days; compared to untreated control; read-out: disease control
How it was run: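 Photometric read-out of fungal growth after 2–7 days, expressed as percent antifungal activity versus untreated check. Cryo-stored conidia in PDB; compound at 20 ppm; dark, 24 °C, 96% RH.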

Phakopsora Pachyrhizi = experiment: Fungicidal activity against Phakopsora pachyrhizi / soybean / leaf disc preventative (Asian soybean rust); format: in vivo; conditions: foliar, 200 ppm in the applied formulation, soybean leaf disks, compared to untreated control leaf disks, read-out: disease control
Experimental: Leaf disks or leaf segments of various plant species are cut from plants grown in a greenhouse. The cut leaf disks or segments are placed in multiwell plates (24-well format) onto water agar. The leaf disks are sprayed with a test solution before (preventative) or after (curative) inoculation. Compounds to be tested are prepared as DMSO solutions (max. 10 mg/ml) which are diluted to the appropriate concentration with 0.025% Tween20 just before spraying. The inoculated leaf disks or segments are incubated under defined conditions (temperature, relative humidity, light, etc.) according to the respective test system. A single evaluation of disease level is carried out 3 to 14 days after inoculation, depending on the pathosystem. Percent disease control relative to the untreated check leaf disks or segments is then calculated.
Fungicidal Activity Against Phakopsora Pachyrhizi Soybean/Leaf Disc Preventative (Asian Soybean Rust)
Soybean leaf disks are placed on water agar in multiwell plates (24-well format) and sprayed with the formulated test compound diluted in water. One day after application leaf discs are inoculated by spraying a spore suspension on the lower leaf surface. After an incubation period in a climate cabinet of 24-36 hours in darkness at 20° C. and 75% rh leaf disc are kept at 20° C. with 12 h light/day and 75% rh. The activity of a compound is assessed as percent disease control compared to untreated when an appropriate level of disease damage appears in untreated check leaf disks (12 to 14 days after application).
The following compounds at 200 ppm in the applied formulation give at least 80% disease control in this test when compared to untreated control leaf disks under the same conditions, which show extensive disease development.

CON(C(=O)C1(C#N)CC1)C(C)c1ccc(-c2noc(C(F)(F)F)n2)cc1 (stereo not drawn) [Compound 1.274, 1-cyano-N-methoxy-N-[1-[4-[5-(trifluoromethyl)-1,2,4-oxadiazol-3-yl]phenyl]ethyl]-cyclopropane-carboxamide]
≥ 80%: pest or weed control at 200 ppm [1] | inhibition of growth at 20 ppm [2] | pest or weed control at 200 ppm (Phakopsora Pachyrhizi)

CON(Cc1ccc(-c2noc(C(F)(F)F)n2)cc1)C(=O)C1(C)CCCCC1 [Compound 1.33, N-methoxy-1-methyl-N-[[4-[5-(trifluoromethyl)-1,2,4-oxadiazol-3-yl]phenyl]methyl]-cyclohexane-carboxamide]
≥ 80%: pest or weed control at 200 ppm [1] | inhibition of growth at 20 ppm [2] | pest or weed control at 200 ppm (Phakopsora Pachyrhizi)

O=C(c1ccccc1Cl)N(O)Cc1ccc(-c2noc(C(F)(F)F)n2)cc1 [Compound 1.754, 2-chloro-N-hydroxy-N-[[4-[5-(trifluoromethyl)-1,2,4-oxadiazol-3-yl]phenyl]methyl]-benzamide]
≥ 80%: pest or weed control at 200 ppm [1] | inhibition of growth at 20 ppm [2] | pest or weed control at 200 ppm (Phakopsora Pachyrhizi)

CON(Cc1ccc(-c2noc(C(F)(F)F)n2)cc1)C(=O)N(C)C#N [Compound 3.62, 1-cyano-3-methoxy-1-methyl-3-[[4-[5-(trifluoromethyl)-1,2,4-oxadiazol-3-yl]phenyl]methyl]urea]
≥ 80%: pest or weed control at 200 ppm [1] | inhibition of growth at 20 ppm [2] | pest or weed control at 200 ppm (Phakopsora Pachyrhizi)

C=CCN(Cc1ccc(-c2noc(C(F)(F)F)n2)cc1)C(=O)C1CCCC1 [Compound 1.475, N-allyl-N-[[4-[5-(trifluoromethyl)-1,2,4-oxadiazol-3-yl]phenyl]methyl]-cyclopentane-carboxamide]
≥ 80%: pest or weed control at 200 ppm [1] | inhibition of growth at 20 ppm [2] | pest or weed control at 200 ppm (Phakopsora Pachyrhizi)

CCCCON(Cc1ccc(-c2noc(C(F)(F)F)n2)cc1)C(=O)C(C)OC (stereo not drawn) [Compound 1.647, N-butoxy-2-methoxy-N-[[4-[5-(trifluoromethyl)-1,2,4-oxadiazol-3-yl]phenyl]methyl]-propanamide]
≥ 80%: pest or weed control at 200 ppm [1] | inhibition of growth at 20 ppm [2] | pest or weed control at 200 ppm (Phakopsora Pachyrhizi)

COCCN(Cc1ccc(-c2noc(C(F)(F)F)n2)cc1)C(=O)CC(C)(C)C [Compound 1.342, N-(2-methoxyethyl)-3,3-dimethyl-N-[[4-[5-(trifluoromethyl)-1,2,4-oxadiazol-3-yl]phenyl]methyl]-butanamide]
≥ 80%: pest or weed control at 200 ppm [1] | inhibition of growth at 20 ppm [2] | pest or weed control at 200 ppm (Phakopsora Pachyrhizi)

C#CCOC(=O)NC(C(=O)N(Cc1ccc(-c2noc(C(F)(F)F)n2)cc1)C1CC1)C(C)C (stereo not drawn) [Compound 1.144, prop-2-ynyl N-[1-[cyclopropyl-[[4-[5-(trifluoromethyl)-1,2,4-oxadiazol-3-yl]phenyl]methyl]-carbamoyl]-2-methyl-propyl]carbamate]
≥ 80%: pest or weed control at 200 ppm [1] | inhibition of growth at 20 ppm [2] | pest or weed control at 200 ppm (Phakopsora Pachyrhizi)

O=C(CC(F)(F)F)N(Cc1ccc(-c2noc(C(F)(F)F)n2)cc1)CC(F)(F)F [Compound 1.704, 3,3,3-trifluoro-N-(2,2,2-trifluoroethyl)-N-[[4-[5-(trifluoromethyl)-1,2,4-oxadiazol-3-yl]phenyl]methyl]-propanamide]
≥ 80%: pest or weed control at 200 ppm [1] | inhibition of growth at 20 ppm [2] | pest or weed control at 200 ppm (Phakopsora Pachyrhizi)

C#CCN(Cc1ccc(-c2noc(C(F)(F)F)n2)cc1)C(=O)C1CCCCC1 [Compound 1.158, N-prop-2-ynyl-N-[[4-[5-(trifluoromethyl)-1,2,4-oxadiazol-3-yl]phenyl]methyl]-cyclohexane-carboxamide]
≥ 80%: pest or weed control at 200 ppm [1] | inhibition of growth at 20 ppm [2] | pest or weed control at 200 ppm (Phakopsora Pachyrhizi)

O=C(CC(F)(F)F)N(CCO)Cc1ccc(-c2noc(C(F)(F)F)n2)cc1 [Compound 1.733, 3,3,3-trifluoro-N-(2-hydroxyethyl)-N-[[4-[5-(trifluoromethyl)-1,2,4-oxadiazol-3-yl]phenyl]methyl]-propanamide]
≥ 80%: pest or weed control at 200 ppm [1] | inhibition of growth at 20 ppm [2] | pest or weed control at 200 ppm (Phakopsora Pachyrhizi)

O=C(C1CC1(F)F)N(CCO)Cc1ccc(-c2noc(C(F)(F)F)n2)cc1 (stereo not drawn) [Compound 1.708, 2,2-difluoro-N-(2-hydroxyethyl)-N-[[4-[5-(trifluoromethyl)-1,2,4-oxadiazol-3-yl]phenyl]methyl]-cyclopropane-carboxamide]
≥ 80%: pest or weed control at 200 ppm [1] | inhibition of growth at 20 ppm [2] | pest or weed control at 200 ppm (Phakopsora Pachyrhizi)

O=C(OCCN(Cc1ccc(-c2noc(C(F)(F)F)n2)cc1)C(=O)C1CCC1)C1CCC1 [Compound 1.715, 2-[cyclobulanecarbonyl-[[4-[5-(trifluoromethyl)-1,2,4-oxadiazol-3-yl]phenyl]methyl]-amino]ethyl cyclobutane-carboxylate]
≥ 80%: pest or weed control at 200 ppm [1] | inhibition of growth at 20 ppm [2] | pest or weed control at 200 ppm (Phakopsora Pachyrhizi)

CCCON(Cc1ccc(-c2noc(C(F)(F)F)n2)cc1)C(=O)C1CCCO1 (stereo not drawn) [Compound 1.312, N-propoxy-N-[[4-[5-(trifluoromethyl)-1,2,4-oxadiazol-3-yl]phenyl]methyl]-tetrahydrofuran-2-carboxamide]
≥ 80%: pest or weed control at 200 ppm [1] | inhibition of growth at 20 ppm [2] | pest or weed control at 200 ppm (Phakopsora Pachyrhizi)

CC(=O)CC(C)C(=O)N(Cc1ccc(-c2noc(C(F)(F)F)n2)cc1)CC1CC1 (stereo not drawn) [Compound 1.209, N-(cyclopropylmethyl)-2-methyl-4-oxo-N-[[4-[5-(trifluoromethyl)-1,2,4-oxadiazol-3-yl]phenyl)methyl]-pentanamide]
≥ 80%: pest or weed control at 200 ppm [1] | inhibition of growth at 20 ppm [2] | pest or weed control at 200 ppm (Phakopsora Pachyrhizi)

O=C(CC(F)(F)F)OCCN(Cc1ccc(-c2noc(C(F)(F)F)n2)cc1)C(=O)CC(F)(F)F [Compound 1.734, 2-[[4-[5-(trifluoromethyl)-1,2,4-oxadiazol-3-yl]phenyl]methyl-(3,3,3-trifluoropropanoyl)-amino]ethyl 3,3,3-trifluoropropanoate]
≥ 80%: pest or weed control at 200 ppm [1] | inhibition of growth at 20 ppm [2] | pest or weed control at 200 ppm (Phakopsora Pachyrhizi)

CC=CCC(=O)N(Cc1ccc(-c2noc(C(F)(F)F)n2)cc1)CC1CC1 [Compound 1.222, N-(cyclopropylmethyl)-N-[[4-[5-(trifluoromethyl)-1,2,4-oxadiazol-3-yl]phenyl]methyl]-pent-3-enamide]
≥ 80%: pest or weed control at 200 ppm [1] | inhibition of growth at 20 ppm [2] | pest or weed control at 200 ppm (Phakopsora Pachyrhizi)

CCCCON(Cc1ccc(-c2noc(C(F)(F)F)n2)cc1)C(=O)C1CCOC1 (stereo not drawn) [Compound 1.636, N-butoxy-N-[[4-[5-(trifluoromethyl)-1,2,4-oxadiazol-3-yl]phenyl]methyl]-tetrahydrofuran-3-carboxamide]
≥ 80%: pest or weed control at 200 ppm [1] | inhibition of growth at 20 ppm [2] | pest or weed control at 200 ppm (Phakopsora Pachyrhizi)

CCON(Cc1ccc(-c2noc(C(F)(F)F)n2)cc1)C(=O)C1(C#N)CC1 [Compound 1.628, 1-cyano-N-ethoxy-N-[[4-[5-(trifluoromethyl)-1,2,4-oxadiazol-3-yl]phenyl]methyl]-cyclopropane-carboxamide]
≥ 80%: pest or weed control at 200 ppm [1] | inhibition of growth at 20 ppm [2] | pest or weed control at 200 ppm (Phakopsora Pachyrhizi)

CC(C)N(Cc1ccc(-c2noc(C(F)(F)F)n2)cc1)C(=O)c1ccccc1Cl [Compound 1.672, 2-chloro-N-isopropyl-N-[[4-[5-(trifluoromethyl)-1,2,4-oxadiazol-3-yl]phenyl]methyl]-benzamide]
≥ 80%: pest or weed control at 200 ppm [1] | inhibition of growth at 20 ppm [2] | pest or weed control at 200 ppm (Phakopsora Pachyrhizi)

CCON(Cc1ccc(-c2noc(C(F)(F)F)n2)cc1)C(=O)C1CCC1 [Compound 1.619, N-ethoxy-N-[[4-[5-(trifluoromethyl)-1,2,4-oxadiazol-3-yl]phenyl]methyl]-cyclobutane-carboxamide]
≥ 80%: pest or weed control at 200 ppm [1] | inhibition of growth at 20 ppm [2] | pest or weed control at 200 ppm (Phakopsora Pachyrhizi)

CCCC(=O)N(Cc1ccc(-c2noc(C(F)(F)F)n2)cc1)CC1CCCO1 (stereo not drawn) [Compound 1.416, N-(tetrahydrofuran-2-ylmethyl)-N-[[4-[5-(trifluoromethyl)-1,2,4-oxadiazol-3-yl]phenyl]methyl]-butanamide]
≥ 80%: pest or weed control at 200 ppm [1] | inhibition of growth at 20 ppm [2] | pest or weed control at 200 ppm (Phakopsora Pachyrhizi)

CCON(Cc1ccc(-c2noc(C(F)(F)F)n2)cc1)C(=O)CC [Compound 1.562, N-ethoxy-N-[[4-[5-(trifiuoromethyl)-1,2,4-oxadiazol-3-yl]phenyl]methyl]-propanamide]
≥ 80%: pest or weed control at 200 ppm [1] | inhibition of growth at 20 ppm [2] | pest or weed control at 200 ppm (Phakopsora Pachyrhizi)
